Values of other authors, collected in patent US8044033B2, “Fluorocytidine derivatives and COX-2 inhibitors for the treatment of cancer” (The Board of Regents of the University of Texas System, priority 2006, dated 2011).
Where two headings read alike, the source gives them in different places.

Legend:
[1] = system: metastatic colorectal cancer
[2] = First-line therapy, no radiation, cross-study comparison
[3] = first-line treatment of metastatic colorectal cancer

In the case of `CCCCCOC(=O)Nc1nc(=O)n([C@@H]2O[C@H](C)[C@@H](O)[C@H]2O)cc1F` [Capecitabine, capecitabine], the “incidence of hand-foot syndrome (HFS)” value (1250 mg/m2/day bid for two weeks every 3 weeks) is given as 54%, the “incidence of grade 2/3 HFS” value (earlier study, capecitabine dose 1000 mg/m2/d bid (Lin et al., 2002)) is given as 34.2% and the “Complete response (%)” value [1, 2] is given as 1%. For the same compound, the “Median OS (months)” value [1, 2] was 12.4-13.2 months, the “Median OS (months)” value ([1]; Second-line therapy, no radiation, cross-study comparison) was 12.7 months and the overall survival [1, 3] was 12 months. The response rate [1, 3] was 25% and the “time to tumor progression in half of the patients” value ([1]; monotherapy) was 2-4 months.
